The source of these data is PMC11956017, “Design of Benzyl-triazolopyrimidine-Based NADPH Oxidase Inhibitors Leads to the Discovery of a Potent Dual Covalent NOX2/MAOB Inhibitor” (Journal of Medicinal Chemistry, 2025).

Where “and” joins values, the source holds several entries; their conditions need not be identical. Equal entries are not always repeated. Entries after “also recorded” stand apart in the source; their conditions may differ.

A short description of series [1]: Mass spectrometric analysis of GSH reactivity. As to conditions: GSH 10 µM and compound 10 µM (1:1), ammonium acetate 200 mM, pH 7.4. The procedure: Reactivity between 9a and GSH was measured via mass spectrometry on a Q Exactive UHMR hybrid quadrupole-Orbitrap mass spectrometer (Thermo Fisher) with positive polarity. The instrument parameters used for MS spectra collection were the following: capillary voltage, 1.2 kV; scan range from 350 to 2000 m/z; HCD collision voltage, 0 V; source fragmentation, 0 V; in-source trapping, 0 V. The ion transfer optics was set as follows: injection flatapole, 5 V; inner-flatapole lens, 4 V; bent flatapole, 2 V; transfer multipole, 0 V. The resolution of the instrument was 200,000 at m/z = 400, the nitrogen pressure in the HCD cell was maintained at approximately 9.8 × 10^–11 mbar, and the source temperature was kept at 100 °C. Solutions for flow injection analysis were constituted by dissolving each compound in LC-MS-grade MeOH.

The next series has as its target T1, bovine albumin (Bos taurus, UniProt P02769).
T1 construct: Bovine serum albumin (BSA, Sigma Aldrich, A7030); purchased Sigma Aldrich A7030; host or cells: bovine serum
Nature of the series: Native mass spectrometry of BSA reactivity. It counts as binding. The following applies: BSA 1 µM, compound 5 µM and 20 µM, pH 7.5, 30 minutes. Here is the method: Protein samples were buffer-exchanged into 200 mM ammonium acetate (pH 7.5) through dialysis prior to native MS analyses. These samples were directly introduced into the mass spectrometer using gold-coated capillary needles prepared in-house.[63] Data were collected on a Q Exactive UHMR hybrid quadrupole-Orbitrap mass spectrometer (Thermo Fisher) with positive polarity. The instrument parameters used for MS spectra collection were the following: capillary voltage, 1.2 kV; scan range from 1000 to 20,000 m/z; HCD collision energy, 0–100 V; source fragmentation, 0 V; in-source trapping, 0 V. The ion transfer optics was set as follows: injection flatapole, 5 V; interflatapole lens, 4 V; bent flatapole, 2 V; transfer multipole, 0 V. The resolution of the instrument was 17,500 at m/z = 200 (transient time of 64 ms), the nitrogen pressure in the HCD cell was maintained at approximately 4 × 10^–10 mbar, and the source temperature was kept at 100 °C. The noise level was set at 3 rather than the default value of 4.64. Calibration of the instruments was performed using 10 mg/mL solution of cesium iodide in water. Data were analyzed using Xcalibur 3.0 (Thermo Scientific), NaViA,[64] and UniDec software packages.[65]

The test system of series [2] is BV2 cells. In words: MTT viability assay in BV2 cells. It counts as cell-based, murine. As to conditions: 10 μM, LPS/IFN-γ stimulation, 48 h.
Method: BV2 murine microglial cells were cultured in DMEM supplemented with 10% heat-inactivated FBS, 100 IU/mL penicillin G, 100 mg/mL streptomycin, and 2.5 mg/mL amphotericin B and grown at 37 °C in 5% CO2 and a humidified atmosphere. […] After 30 min, LPS 100 ng/mL and IFN-γ 20 ng/mL were added to the medium for an additional 48 h.
Cell viability was determined by the MTT assay. Briefly, MTT (dissolved in PBS with a final concentration of 0.5 mg/mL) was added to the medium culture. After 2 h of incubation, the cells were mixed with DMSO and shaken for 10 min. Finally, the absorption of the samples was read by regulating the 570 nm filter as the main wavelength and the 630 nm filter as the referenced wavelength. The blank was subtracted from all samples to obtain pure cellular absorption. Results are expressed as the percentage of cell survival, taking 100% of the cells treated with the vehicle.
Series [3] concerns BV2 cells. Nature of the series: ROS detection with CellROX Deep Red in BV2 cells. Format: cell-based, murine. The following applies: 10 μM, LPS/IFN-γ stimulation, 48 h. The procedure:
BV2 murine microglial cells were cultured in DMEM supplemented with 10% heat-inactivated FBS, 100 IU/mL penicillin G, […] streptomycin, and […] amphotericin B and grown at 37 °C in 5% CO2 and a humidified atmosphere. […] After 30 min, LPS 100 ng/mL and IFN-γ 20 ng/mL were added to the medium for an additional 48 h. After treatment, BV2 cells were incubated with a CellROX Deep Red reagent (cat. no. C10422) at 5 μM and incubated for 30 min at 37 °C as indicated by the manufacturer protocol. ROS levels were measured by a spectrofluorometer, taking as 100% the median fluorescence intensity of cells treated with the vehicle.

The next series concerns csNOX5 dehydrogenase. Nature of the series: Intact protein mass spectrometry of csNOX5 dehydrogenase. Format: binding, Cylindrospermum stagnale. Here is the method:
Approximately 1 mg mL^-1 protein was incubated with 300 μM FAD and 1 mM 9a at 4 °C for 1 h. A negative control reaction was performed by adding an equal volume of DMSO. Protein was denatured by adding 1% (v/v) formic acid. Chromatographic separation and mass spectrometry analysis were carried out as previously reported.[10] Analyses were carried out by ESI-qTOF-HRMS on an […] qTOF system (Sciex) embedding a Twin Sprayer ESI probe and coupled with an ExcionLC system (Sciex) controlled by SciexOS software v. 3.0.0. The injection volume was 10 μL (10 μg), and chromatographic separation was carried out with a bioZen WidePore C4 column (a 100 mm length, a 2.1 mm diameter, and a 2.6 μm particle size; Phenomenex).

Series [4] concerns the target T2, NOX2 (Homo sapiens, UniProt P04839). Nature of the series: NOX2 inhibition upon preactivation with cytosolic partners, washout, cytochrome c reduction. Format: biochemical. Further details: NOX2 was expressed as native protein in X-CGD PLB-985 cells transduced with the RD114 pseudotyped MFGS-NOX2 vector; expressed in transfected cells; host or cells: X-CGD PLB-985 cells transduced with MFGS-NOX2; isolated membranes; Cytosolic proteins made in E. coli. As to conditions: 1 mM compound, 60 min, with or without p47phox/p67phox/Rac1, washout, fresh activators.
Method: More in detail, two different mixtures were prepared simultaneously: a “nonpreactivated NOX2” mixture in the absence of cytosolic partners and a “preactivated NOX2” mixture in the presence of cytosolic partners. NOX2-containing membranes (3.9 mg/mL) were added to a sodium phosphate buffer (65 mM, pH 7.0), 50 μM FAD, and 130 μM LiDS, in the presence or absence of 160 nM p67^phox, p47^phox, and Rac1 Q61L in a final volume of 20 μL. Both mixes were incubated with DMSO (vehicle) or 1 mM of the tested compound for 60 min at 25 °C. The mixtures were then centrifuged (20,000g for 10 min) at 4 °C to gently remove the excess of the inhibitor and, if present, of the activators. The supernatants were discarded to eliminate the excess of the nonbound compound, and the pellets were resuspended in the same volume of the fresh buffer. Subsequently, the resuspended pellets were loaded into a spectrophotometric cuvette at a final concentration of 0.39 mg/mL and incubated with fresh cytosolic activators (160 nM), LiDS (130 μM), and cytochrome c (200 μM) for 10 min at 25 °C. […] The reaction was then initiated with 240 μM NADPH and monitored at 550 nm with a Cary 100 UV–vis spectrophotometer (Varian).

In series [5] the target is T2, NOX2. Nature of the series: Human NOX2 isolated membranes, cytochrome c assay. It counts as biochemical. Set-up: NOX2 was expressed as native protein in X-CGD PLB-985 cells transduced with the RD114 pseudotyped MFGS-NOX2 vector; expressed in transfected cells; host or cells: X-CGD PLB-985 cells transduced with MFGS-NOX2; isolated membranes; Cytosolic proteins made in E. coli. As to conditions: membrane-embedded NOX2; n = 1; read-out: IC50 NOX2 measured with the cytochrome c assay. Here is the method:
The strong activity of NOX2 enabled the use of the peroxide-independent MCLA and cytochrome c assays that probe superoxide formation. IC50 determinations were performed as described, with the same aforementioned modifications for covalent inhibition. Briefly, 20 μg of NOX2-p22^phox membranes was added to a reaction mix with a 65 mM sodium phosphate buffer (pH 7.0), 0.5 μM FAD, 130 μM LiDS, 160 nM p67^phox, p47^phox, Rac1 Q61L, and 1 μM MCLA or 200 μM bovine cytochrome c. The estimated final protein concentration based on the heme’s absorbance was 60 nM. Compounds were incubated for 1 h at 25 °C, at varying concentrations. The reaction started by adding 240 μM NADPH, and measurements were taken by using a GloMax plate reader (Promega; MCLA) or a Cary 100 UV–vis spectrophotometer (Varian; cytochrome c).

T1 sequence (P02769 25-607): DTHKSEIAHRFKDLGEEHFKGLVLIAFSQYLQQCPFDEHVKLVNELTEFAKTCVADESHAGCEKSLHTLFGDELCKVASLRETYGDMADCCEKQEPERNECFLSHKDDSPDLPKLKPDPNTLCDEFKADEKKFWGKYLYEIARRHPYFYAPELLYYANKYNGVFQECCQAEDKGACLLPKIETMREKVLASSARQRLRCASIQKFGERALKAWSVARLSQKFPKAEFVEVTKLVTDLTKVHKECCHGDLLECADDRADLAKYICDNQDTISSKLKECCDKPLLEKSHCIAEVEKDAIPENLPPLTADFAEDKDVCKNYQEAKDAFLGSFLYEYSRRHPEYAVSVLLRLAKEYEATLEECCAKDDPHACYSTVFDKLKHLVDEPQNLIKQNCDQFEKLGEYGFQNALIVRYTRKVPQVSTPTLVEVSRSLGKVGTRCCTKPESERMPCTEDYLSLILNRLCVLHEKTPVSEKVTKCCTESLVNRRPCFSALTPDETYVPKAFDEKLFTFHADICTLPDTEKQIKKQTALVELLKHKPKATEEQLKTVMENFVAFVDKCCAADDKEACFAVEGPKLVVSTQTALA

In the case of `C#CCN(C)Cc1ccc(Cn2nnc3c(Sc4nc5ccccc5o4)ncnc32)cc1` [Compound 9a, N-(4-((7-(Benzo[d]oxazol-2-ylthio)-3H-[1,2,3]triazolo[4,5-d]pyrimidin-3-yl)methyl)benzyl)-N-methylprop-2-yn-1-amine], in series [1], the “adduct formation with glutathione” value was “readily reacted with GSH; also recorded: able to form an adduct with glutathione”. The “adduct formation with bovine serum albumin” value on bovine albumin is “no adduct; also recorded: did not bind”. Also, the BV2 cell viability result in the series on BV2 cells [2] is “negligible effects on cells viability”. Also, the “ROS levels in BV2 cells” value in the series on BV2 cells [3] is “decrease the ROS levels; also recorded: strongest ROS-dumping activity”. Further, the “increase in molecular weight of csNOX5 dehydrogenase after reaction” value with csNOX5 dehydrogenase (1 mM inhibitor, 4 °C, 1 h, vs DMSO-treated protein) is 290 Da and 290.3 Da. The “covalent binding to csNOX5 dehydrogenase active-site cysteine” value in the series with csNOX5 dehydrogenase (intact protein ESI-qTOF-HRMS) is given as “covalent binding”. Besides, the “retention of inhibitor by NOX2 after washout, resting vs activated state” value at NOX2 [4] is recorded as “retained only by the activated”. Besides, the IC50 on NOX2 [5] was determined as 770 nM.
